Assay results as given in the supplement of paper PMC10307832.

Columns and labels:
Assay in all cases: relative viability (nuclei count vs DMSO), 5 days (fraction); higher = more cells survive
[1] = compound: CS(=O)(=O)CCNCc1ccc(-c2ccc3ncnc(Nc4ccc(OCc5cccc(F)c5)c(Cl)c4)c3c2)o1 [Lapatinib] + CS(=O)(=O)N1CCN(Cc2cc3nc(-c4cccc5[nH]ncc45)nc(N4CCOCC4)c3s2)CC1 [Pictilisib] (partner 1 µM)
Procedure, shortened: (§1)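 The day after seeding in 1536-well plates, lung cancer cell lines were treated by pin tool with a single drug, or with a fixed anchor-drug dose together with five library-drug doses (not always all listed) in √10 steps. After 5 days, a combined fix-and-stain solution (final 0.05% Triton X-100, 1% formaldehyde, 1 ug/ml Hoechst) was added. Nuclei counted on 4× images gave relative viability as treated counts over vehicle counts, reported as the median of duplicate plates.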

[2] = compound: CC1=NC=CC(=C1)C2=CC=C(C=C2)CC(=O)NC3=CC=C(C=C3)C4=CN=CC=C4 [Wnt-C59] + Nc1ncn([C@H]2C[C@H](O)[C@@H](CO)O2)c(=O)n1 [Decitabine] (partner 2 µM)
Procedure, shortened: as §1

[3] = compound: CC1=NC=CC(=C1)C2=CC=C(C=C2)CC(=O)NC3=CC=C(C=C3)C4=CN=CC=C4 [Wnt-C59] + C[C@]1(O)C[C@@H](c2nc(-c3ccc4ccc(-c5ccccc5)nc4c3)c3c(N)nccn32)C1 [Linsitinib] (partner 1 µM)
Procedure, shortened: as §1

[4] = compound: CC1=NC=CC(=C1)C2=CC=C(C=C2)CC(=O)NC3=CC=C(C=C3)C4=CN=CC=C4 [Wnt-C59] + COc1cc2c(Oc3ccc(NC(=O)C4(C(=O)Nc5ccc(F)cc5)CC4)cc3F)ccnc2cc1OCCCN1CCOCC1 [Foretinib] (partner 0.25 µM)
Procedure, shortened: as §1

| Cell Line | relative viability ([1]; first compound 0.06325 µM) | relative viability ([1]; first compound 0.2 µM) | relative viability ([1]; first compound 0.6325 µM) | relative viability ([1]; first compound 2 µM) | relative viability ([2]; first compound 0.001 µM) | relative viability ([2]; first compound 0.01 µM) | relative viability ([2]; first compound 0.03162 µM) | relative viability ([2]; first compound 0.1 µM) | relative viability ([3]; first compound 0.001 µM) | relative viability ([3]; first compound 0.01 µM) | relative viability ([3]; first compound 0.03162 µM) | relative viability ([3]; first compound 0.1 µM) | relative viability ([4]; first compound 0.001 µM) | relative viability ([4]; first compound 0.01 µM) | relative viability ([4]; first compound 0.03162 µM) | relative viability ([4]; first compound 0.1 µM) | relative viability ([1]; first compound 0.02 µM) |
| --- | --- | --- | --- | --- | --- | --- | --- | --- | --- | --- | --- | --- | --- | --- | --- | --- | --- |
| NCI-H1915 | 0.909 | 0.982 | 0.981 | 0.949 | 0.261 | 0.261 | 0.262 | 0.251 | 1.07 | 1.04 | 1.12 | 1.09 | 1.12 | 1.03 | 1.16 | 1.09 | – |
| Calu-6 | 0.838 | 0.958 | 1.08 | 0.978 | – | – | – | – | 0.89 | 0.9 | 0.987 | 0.955 | 0.856 | 0.903 | 0.936 | 0.834 | 0.865 |
| LU99A | 0.26 | 0.345 | 0.346 | 0.372 | 0.943 | 0.937 | 0.897 | 0.878 | 0.554 | 0.508 | 0.594 | 0.495 | 0.845 | 0.853 | 0.963 | 0.831 | 0.337 |
| LOU-NH91 | 0.451 | 0.425 | 0.513 | 0.447 | 0.873 | 0.838 | 0.83 | 0.822 | 1.07 | 0.748 | 0.854 | 0.899 | 0.941 | 0.764 | 0.988 | 0.92 | 0.395 |
| NCI-H1993 | – | 0.808 | 0.812 | 0.977 | 0.597 | 0.594 | 0.64 | 0.66 | 0.703 | 0.811 | 0.699 | 0.799 | 0.81 | – | 0.987 | 0.706 | 0.715 |
| NCI-H1703 | 0.213 | 0.228 | 0.32 | 0.275 | – | – | – | – | 0.721 | 0.631 | 0.739 | 0.899 | 0.346 | 0.279 | 0.355 | 0.348 | 0.231 |
| NCI-H2405 | 0.412 | 0.428 | 0.398 | 0.397 | 0.793 | 0.756 | 0.786 | 0.656 | 1.03 | – | 0.887 | 0.875 | 1.04 | 0.94 | 0.938 | 0.941 | – |
| NCI-H661 | 0.381 | 0.29 | 0.307 | 0.324 | 0.542 | 0.516 | 0.576 | 0.606 | 0.581 | 0.621 | 0.548 | 0.723 | 1 | 0.981 | 1.06 | 0.976 | 0.397 |
| COR-L 105 | 0.329 | 0.35 | 0.419 | 0.307 | 0.613 | 0.618 | 0.663 | 0.586 | 1.26 | 0.988 | 0.765 | 0.804 | 1.13 | 0.722 | 1.03 | 0.911 | 0.33 |
| NCI-H1437 | 0.314 | 0.386 | 0.482 | 0.422 | 0.584 | 0.562 | 0.559 | 0.614 | 1.01 | 1.01 | 1.04 | 1.01 | 1.31 | 1.28 | 1.29 | 1.26 | 0.5 |
| NCI-H1563 | 0.643 | 0.6 | 0.725 | 0.693 | – | – | – | – | 1.24 | 1.2 | 1.34 | 1.13 | 0.911 | 0.931 | 0.926 | 0.898 | 0.592 |
| NCI-H2009 | 0.747 | 0.989 | 0.853 | 0.974 | 0.35 | 0.442 | 0.352 | 0.379 | 1.17 | 1.15 | 1.19 | 1.12 | 1.26 | 1.21 | 1.22 | 0.819 | 0.357 |
| NCI-H23 | – | 0.506 | 0.482 | 0.483 | 0.292 | 0.29 | 0.35 | 0.325 | 0.719 | 0.518 | 0.579 | 0.483 | 0.952 | 0.97 | 0.967 | 1.02 | – |
| 201T | 0.656 | 0.675 | 0.659 | 0.638 | 0.861 | 0.824 | 0.902 | 0.812 | 1.02 | 1.04 | 1.06 | 1.04 | 1.19 | 1.15 | 1.04 | 1.15 | 0.603 |
| NCI-H520 | 0.285 | 0.269 | 0.332 | 0.348 | 0.48 | 0.532 | 0.537 | 0.504 | 0.944 | 0.912 | 1.1 | 0.843 | 0.792 | 0.696 | 0.867 | 0.689 | 0.308 |
| NCI-H1623 | – | – | – | – | – | – | – | – | – | – | – | – | 0.886 | 0.732 | 0.989 | 0.893 | – |
| A-427 | 0.602 | 0.854 | 0.765 | 0.665 | 0.623 | 0.564 | 0.615 | 0.588 | 1.12 | 1.05 | 1.14 | 1.06 | 1.02 | 0.977 | 1.29 | 1.24 | – |
| NCI-H1975 | 0.24 | 0.309 | 0.329 | 0.192 | 0.419 | 0.385 | 0.423 | 0.38 | 1.01 | 0.88 | 1.01 | 0.922 | 0.819 | 0.891 | 0.942 | 0.906 | 0.281 |
| NCI-H647 | 0.435 | – | 0.364 | 0.431 | 0.379 | 0.456 | 0.393 | 0.288 | 1.08 | 1.15 | 1.18 | 1.22 | 1.24 | 0.978 | 1.36 | 1.18 | – |
| NCI-H3122 | 0.481 | 0.636 | 0.603 | 0.751 | 0.453 | 0.477 | 0.476 | 0.385 | 1.04 | 0.931 | 1.02 | 1.02 | 0.933 | 0.978 | 0.989 | 0.946 | 0.564 |
